Here are results for 28 molecules from patent publication US8664276B2, “Stilbene analogs and methods of treating cancer” (University of Kentucky Research Foundation, priority 2011, dated 2014).

“Also recorded” adds a separate entry of the source.

Data set [1] concerns LS174 CRC cells. The data set is described as follows: CRC cell proliferation assay (Vi-Cell). In kind it is cell-based. The settings on record: for colon cancer cell proliferation, effectiveness versus resveratrol and 4r: FIG. 14. On the procedure:
Luciferase and cell proliferation assay. HEK293T cells were transiently transfected in a 12-well plate with 0.2 μg of the Super8xTOPFlash reporter and 0.05 μg of Renilla luciferase reporter. Culture medium was changed after 12 h. After 6 h, cells were treated with DMSO or Wnt inhibitors for 12 h, and then treated with 25 mM LiCl or Wnt conditioned medium. After 12 h, cells were harvested and luciferase activity measured by Dual-luciferase Reporter Assay System (Promega, Madison Wis.). All conditions were done in triplicate and each experiment was carried out at least two times. For cell proliferation assay, CRC cells were treated with DMSO or inhibitors for 2d and 4d. The cell numbers and viability were analyzed by Vi-Cell Cell Viability Analyzer.
(§1) Western blot and cell proliferation assay. The activity of fluorinated N,N-dialkylaminostilbenes (FIDAS or FIDAS agents) on Wnt signaling activity in cancer cells were analyzed by Western blot with antibodies against Wnt target genes, such as c-Myc, Axin2. The effects of FlDAS agents on cancer cell growth were analyzed using Cell Viability Analyzer (Beckman Coulter, Vi-Cell XR). These assays have been described previously (see Zhang et al., J. of Med. Chem. 54, 1288-1297 (2011)).

Data set [2] deals with liver cancer cells. The data set is described as follows: Liver cancer cell proliferation. In kind it is cell-based. The settings on record: FIG. 15. As for the experimental part: as §1
As previously shown, several metabolites of the halogenated stilbenes of the present disclosure were synthesized (Example 2 and FIG. 3). In this study, the effects of some of these metabolites on cell proliferation were studied.

The test system of data set [3] is Wnt target genes, Axin2 and c-Myc. The data set is described as follows: Western blot of Wnt target proteins in LS174 CRC cells. In kind it is cell-based. On the procedure: Western blot. Western blots were performed using the following antibodies: β-catenin (Sigma, C2206), c-Myc (Epitomics, 1472-1), Axin2 (Cell Signaling, 2151), β-Actin (Sigma, A1978), TCF4 (Epitomics, 2114-1) and pygopus2 (Santa Cruz, sc-74878), Cyclin D1 (Cell signaling, 2926).
Cyclin B1 levels were decreased, whereas p21^WAF1/CIP1 levels increased, consistent with the fact that p21^WAF1/CIP1 expression is repressed by c-Myc. β-catenin levels were not affected by resveratrol. Next, the mRNA levels of β-catenin target genes were analyzed using RT-PCR. Expression of survivin, Lgr5, CD44, and c-Myc were decreased in resveratrol-treated cells.
A panel of stilbene analogs was designed and synthesized (FIGS. 2, 3, 5A and 6A). […] However, the solubility of 4d was poor and it was not effective below 10 μM concentrations (data not shown). To improve its solubility and activity, compound 4d was modified with 2′-fluoro 4e, 3′-fluoro 4f and 4′-fluoro 4g substituents (FIG. 5D). Both compounds 4e and 4f had good activity at 10 μM, (E)-4-(2-fluorostyryl)-N,N-dimethylaniline.
as §1

Data set [4] relates to Wnt signaling. The data set is described as follows: TopFlash luciferase reporter assay in HEK293T cells. In kind it is cell-based. As for the experimental part:
Luciferase and cell proliferation assay. HEK293T cells were transiently transfected in a 12-well plate with 0.2 μg of the Super8xTOPFlash reporter and 0.05 μg of Renilla luciferase reporter. Culture medium was changed after 12 h. After 6 h, cells were treated with DMSO or Wnt inhibitors for 12 h, and then treated with 25 mM LiCl or Wnt conditioned medium. After 12 h, cells were harvested and luciferase activity measured by Dual-luciferase Reporter Assay System (Promega, Madison Wis.). All conditions were done in triplicate and each experiment was carried out at least two times. For cell proliferation assay, CRC cells were treated with DMSO or inhibitors for 2d and 4d. The cell numbers and viability were analyzed by Vi-Cell Cell Viability Analyzer. To identify Wnt pathway inhibitors for CRC prevention and treatment, a number of anti-cancer agents from plants were screened using the TopFlash reporter assay. The TopFlash reporter was transfected into HEK293T cells, and the cells were treated with Wnt3A-conditioned medium in order to activate the luciferase reporter. […] To determine if resveratrol regulates β-catenin degradation, the cells were treated with 25 mM LiCl, which inhibits GSK-3 and stabilizes β-catenin. In this assay, LiCl activated the reporter more strongly than Wnt3A conditioned medium. […] Emodin is an anti-cancer agent from plants; it exists in many unpurified resveratrol products. Emodin had no effect on Wnt signaling. See Zhang et al., J. of Med. Chem. 54, 1288-1297 (2011).
On the technique in general: In a reporter assay the amount or activity of a reporter protein is the signal.

On to `C[N+](C)([O-])c1ccc(/C=C/c2c(F)cccc2Cl)cc1` [4aa, (E)-4-(2-chloro-6-fluorostyryl)-N,N-dimethylaniline oxide], for which the melting point (commonly the temperature of the solid-liquid transition) fell in the range of 82 to 84 °C. For the same molecule, in data set [1], the “colon cancer cell proliferation, effectiveness versus resveratrol and 4r” value is “significantly more effective than resveratrol, as well as compound 4r”. Moreover, the “liver cancer cell proliferation, effectiveness versus resveratrol and 4r” value in data set [2] is “significantly more effective than resveratrol, as well as compound 4r”.
As for `COc1ccc(/C=C/c2ccccc2)cc1` [4b, (E)-4-Methoxystilbene], the melting point lay in the range of 136 to 137 °C.
For `C[N+](C)([O-])c1ccc(/C=C/c2c(Cl)cccc2Cl)cc1` [4bb, (E)-4-(2,6-dichlorostyryl)-N,N-dimethylaniline oxide], the melting point is 80 to 82 °C.
As for `Nc1ccc(C=Cc2ccccc2)cc1` [4c, 4-aminostilbene, reference compound], the “repression of Wnt target genes at 30 μM” value in data set [3] (30 μM, CRC cells) is “represses Wnt target genes”.
Consider `CN(C)c1ccc(/C=C/c2ccccc2F)cc1` [4e, (E)-4-(2-Fluorostyryl)-N,N-dimethylaniline], for which the melting point is 124 to 126 °C. Besides, in data set [3] (CRC cells), the “repression of Wnt target genes at 10 μM” value is reported as “good activity” and the “Wnt inhibitory activity in Western blot, qualitative or relative to a comparator” value was “best among all of the monofluoro-substituted compounds”. In addition, the “CRC cell growth inhibition compared with other compounds” value in data set [1] (cell proliferation assay) is on record as “significantly better inhibitor”.
On to `CNc1ccc(C=Cc2c(Cl)cccc2Cl)cc1` [4ee, (E and Z)-4-(2,6-dichlorostyryl)-N-methylaniline], for which, in data set [1], the “colon cancer cell proliferation, effectiveness versus resveratrol and 4r” value is “significantly more effective than resveratrol, as well as compound 4r”. Also, the “liver cancer cell proliferation, effectiveness versus resveratrol and 4r” value in data set [2] was “significantly more effective than resveratrol, as well as compound 4r”.
As to `CN(C)c1ccc(/C=C/c2cccc(F)c2)cc1` [4f, (E)-4-(3-Fluorostyryl)-N,N-dimethylaniline], the melting point lay in the range of 147 to 148 °C. Besides, the “repression of Wnt target genes at 10 μM” value in data set [3] (CRC cells) was “good activity”.
Consider `CN(C)c1ccc(/C=C/c2ccc(F)cc2)cc1` [4g, (E)-4-(4-Fluorostyryl)-N,N-dimethylaniline], for which the melting point is 197 to 198 °C.
`CCN(CC)c1ccc(/C=C/c2ccccc2F)cc1` [4h, (E)-4-(2-Fluorostyryl)-N,N-diethylaniline] returned a melting point of 78 to 79 °C. In addition, in data set [3] (CRC cells), the “repression of Wnt target genes at 10 μM” value is given as “active” and the “Wnt inhibitory activity in Western blot, qualitative or relative to a comparator” value is listed as “not as potent as compound 4e”.
As for `Fc1ccccc1/C=C/c1ccc(N(c2ccccc2)c2ccccc2)cc1` [4i, (E)-4-(2-Fluorostyryl)-N,N-diphenylaniline], the melting point lay in the range of 114 to 115 °C. In addition, in data set [3] (CRC cells), the “repression of Wnt target genes at 10 μM” value is “inactive”.
Regarding `CN1CCN(c2ccc(/C=C/c3ccccc3F)cc2)CC1` [4j, (E)-1-(4-(2-Fluorostyryl)phenyl)-4-methylpiperazine], the melting point lay within 142 to 144 °C.
Still for that read-out and setting: the same measure for `CN(C)c1ccc(/C=C/c2ccccc2F)c2ccccc12` [4k, (E)-4-(2-Fluorostyryl)-N,N-dimethylnaphthalen-1-amine]: 56 to 58 °C.
In the case of `CN(C)c1ccc(/C=C/c2cccc(F)c2F)cc1` [4m, (E)-4-(2,3-Difluorostyryl)-N,N-dimethylaniline], the melting point lay in the range of 132 to 133 °C. In addition, in data set [3] (CRC cells), the “repression of Wnt target genes at 10 μM” value is recorded as “repress Wnt target genes” and the “Wnt inhibitory activity in Western blot, qualitative or relative to a comparator” value is listed as “more active than compound 4e”.
Turning to `CN(C)c1ccc(/C=C/c2ccc(F)cc2F)cc1` [4n, (E)-4-(2,4-Difluorostyryl)-N,N-dimethylaniline], the melting point fell in the range of 139 to 140 °C.
As for `CN(C)c1ccc(/C=C/c2cc(F)ccc2F)cc1` [4o, (E)-4-(2,5-Difluorostyryl)-N,N-dimethylaniline], the melting point was 146 to 147 °C. In data set [3] (CRC cells), the “repression of Wnt target genes at 10 μM” value is “repress Wnt target genes” and the “Wnt inhibitory activity in Western blot, qualitative or relative to a comparator” value is reported as “more active than compound 4e”.
As to `CN(C)c1ccccc1/C=C/c1c(F)cccc1F` [4p, (E)-2-(2,6-Difluorostyryl)-N,N-dimethylaniline], the “Wnt inhibitory activity in Western blot, qualitative or relative to a comparator” value in data set [3] (CRC cells) is given as “not as active as compound 4r”.
`CN(C)c1cccc(/C=C/c2c(F)cccc2F)c1` [4q, (E)-3-(2,6-Difluorostyryl)-N,N-dimethylaniline] returned a melting point of 69 to 71 °C. In addition, the “Wnt inhibitory activity in Western blot, qualitative or relative to a comparator” value in data set [3] (CRC cells) was “not as active as compound 4r”.
The like results for `CCN(CC)c1ccc(/C=C/c2c(F)cccc2F)cc1` [4s, (E)-4-(2,6-Difluorostyryl)-N,N-diethylaniline] were, in that order, 70 to 71 °C and “slightly less active than compound 4r; also recorded: active Wnt inhibitor”.
The molecule `CN(C)c1ccc(/C=C/c2ccc(F)c(F)c2)cc1` [4t, (E)-4-(3,4-Difluorostyryl)-N,N-dimethylaniline] yielded a melting point of 159 to 160 °C.
The same measure, in the same setting: the result for `CN(C)c1ccc(/C=C/c2cc(F)cc(F)c2)cc1` [4u, (E)-4-(3,5-Difluorostyryl)-N,N-dimethylaniline] reads 136 to 137 °C.
Consider `CN(C)c1ccc(/C=C/c2c(F)ccc(F)c2F)cc1` [4v, (E)-N,N-Dimethyl-4-(2,3,6-trifluorostyryl)aniline], for which the melting point is 91 to 92 °C. Besides, in data set [3] (CRC cells), the “repression of Wnt target genes at 10 μM” value is reported as “active” and the “Wnt inhibitory activity in Western blot, qualitative or relative to a comparator” value is listed as “no significant improvements over compound 4r”.
The like results for `CN(C)c1ccc(/C=C/c2c(F)cc(F)cc2F)cc1` [4w, (E)-N,N-Dimethyl-4-(2,4,6-trifluorostyryl)aniline] were, in that order, 127 to 128 °C, “active” and “no significant improvements over compound 4r”.
In turn, `CN(C)c1ccc(/C=C/c2c(F)cccc2Cl)cc1` [4x, (E)-4-(2-chloro-6-fluorostyryl)-N,N-dimethylaniline] showed a melting point of 42 to 44 °C.
On the same count and under the same terms, the same measure for `CN(C)c1ccc(/C=C/c2c(Cl)cccc2Cl)cc1` [4y, (E)-4-(2,6-dichlorostyryl)-N,N-dimethylaniline]: 96 to 97 °C; for `C[N+](C)([O-])c1ccc(/C=C/c2c(F)cccc2F)cc1` [4z, (E)-4-(2,6-difluorostyryl)-N,N-dimethylaniline oxide]: 100 to 103 °C.
In the case of `CN(C)c1ccc(CCc2c(F)cccc2F)cc1` [5r, (E)-4-(2,6-Difluorophenethyl)-N,N-dimethylaniline], the “Wnt inhibitory activity in Western blot, qualitative or relative to a comparator” value in data set [3] (CRC cells) was “the activity was lost”.
As for `Cc1cc(O)c2c(c1)C(=O)c1cc(O)cc(O)c1C2=O` [Emodin], the “effect on Wnt signaling” value in data set [4] is reported as “no effect”.
As to `Oc1ccc(/C=C\c2cc(O)cc(O)c2)cc1` [cis- or (Z)-resveratrol, reference compound], in data set [3] (LS174 CRC cells), the “protein levels of c-Myc and Cyclin D1” value was “reduced by resveratrol but not its isomer”.
